Assays:
[1] = molecular target: T1, horse serum cholinesterase (Equus caballus, UniProt P81908); test: Inhibition of horse (serum) cholinesterase, Ki by the method of Dixon; type: biochemical
T1 construct: purchased Sigma Chemicals Co; host or cells: horse serum
Text: E. coli beta-galactosidase, chromatographically purified, was obtained from Worthington Biochemicals. P-aminophenyl-beta-D-thiogalactopyranoside (APGP) was purchased from Calbiochem. O-nitrophenyl-beta-D-galactopyranoside (ONPG), bovine trypsin (twice recrystallized), DL-benzoylarginine-p-nitroanilide (DL-BAPNA), p-aminobenzamidine (PAB), cholinesterase (affinity purified from horse serum), procainamide, dithiobisnitrobenzoate, and butyrylthiocholine were obtained from Sigma Chemicals Co. Tresyl chloride (2,2,2-trifluoroethanesulfonyl chloride) was obtained from Fluka and ethyl-(dimethyl-aminopropyl)carbodiimide (EDC) from Aldrich. The surfactant Sandopan JA36 was obtained from Sandoz Chemicals and the surfactant octaethylene glycol n-hexadecyl ether (C16 E8) was obtained from Nikkol Chemicals Co. (Japan). The structures of these surfactants is as shown below: [drawing 1]
The molar extinction coefficient of C16 E8 -pyridinium at 259 nm is […] (by dry weight). The product final yield is 71.9%.

[2] = reported pI; cited from earlier work
[3] = Stability of trypsin solution at 4 degrees Celsius (BAPNA activity assay); type: physicochemical; details: 2.9 mg/ml in Buffer A, over three days
Protocol: This example was conducted in accordance with Example 18 above. The activity of trypsin solutions were determined by a method similar to that described by Erlanger et al., Arch. Biochem. Biophys. 95, 271 (1961), using BAPNA as substrate. An aliquot (0.5 milliliter) of the trypsin solution to be assayed was diluted in 1.5 milliliters of 0.05 M Tris-HCl buffer, pH 8.15, containing 0.02 M CaCl2 in a 3.5 milliliter disposable polystyrene cuvette. A 100 microliter aliquot of a 10^-2 M solution of BAPNA in dimethylsulfoxide was then added to this solution. The rate of change in absorbance at 388 nm at 25 degrees Celsius was then measured in a Schimadzu UV 160 spectrophotometer. One unit of activity was defined as the amount of enzyme causing an absorbance change of 0.1 per minute under these conditions.
A solution of trypsin (2.9 milligrams of protein per milliliter) was prepared in Buffer A and several activity assays were made over the course of three days to determine its stability at 4 degrees Celsius. […] In this case the eluted peaks were collected and assayed for enzymatic activity.

T1 sequence (P81908 whole entry): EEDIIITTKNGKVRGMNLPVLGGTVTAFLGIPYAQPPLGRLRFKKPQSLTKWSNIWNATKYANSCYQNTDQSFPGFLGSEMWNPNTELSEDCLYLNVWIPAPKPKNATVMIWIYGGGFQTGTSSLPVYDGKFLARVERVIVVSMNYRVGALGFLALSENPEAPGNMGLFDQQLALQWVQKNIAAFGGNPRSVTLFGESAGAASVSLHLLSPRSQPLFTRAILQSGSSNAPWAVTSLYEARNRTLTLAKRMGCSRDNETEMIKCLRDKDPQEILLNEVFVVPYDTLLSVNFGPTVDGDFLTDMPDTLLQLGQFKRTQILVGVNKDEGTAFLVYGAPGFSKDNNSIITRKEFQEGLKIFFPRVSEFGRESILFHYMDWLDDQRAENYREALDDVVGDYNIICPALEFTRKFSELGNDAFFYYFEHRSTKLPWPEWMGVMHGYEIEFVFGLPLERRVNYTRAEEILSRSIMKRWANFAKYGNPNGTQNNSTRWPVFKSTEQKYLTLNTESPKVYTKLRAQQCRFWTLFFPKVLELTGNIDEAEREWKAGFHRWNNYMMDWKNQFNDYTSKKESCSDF

## CCCCCCCCCCCCCCCCOCCOCCOCCOCCOCCOCCOCCOCC[n+]1ccccc1 [C16 E8 -pyridinium, N-(n-hexadecyloctaethoxy)pyridinium]
[1]; horse serum cholinesterase, method of Dixon, read-out: Ki toward horse serum cholinesterase
  Ki: 514 nM
[1]; surface active HPLC peak, retention time 127.5 minutes
  inhibition of the enzymatic activity of horse cholinesterase: significantly inhibits

## CCCCCCCCCCCCCCCCOCCOCCOCCOCCOCCOCCOCCOCCO [Unmodified surfactant, octaethylene glycol n-hexadecyl ether, reference compound]
[1]; even at concentrations as high as 10^-3 M
  effect on the activity of horse cholinesterase: does not have any effect

## Lysozyme: test protein, isoelectric point (pI) of 11.0
[2]
  isoelectric point (pI): 11.0

B1: trypsin: bovine trypsin (twice recrystallized) (protein, UniProt P00760 24-246, looked up)
Serine protease 1: IVGGYTCGANTVPYQVSLNSGYHFCGGSLINSQWVVSAAHCYKSGIQVRLGEDNINVVEGNEQFISASKSIVHPSYNSNTLNNDIMLIKLKSAASLNSRVASISLPTSCASAGTQCLISGWGNTKSSGTSYPDVLKCLKAPILSDSSCKSAYPGQITSNMFCAGYLEGGKDSCQGDSGGPVVCSGKLQGIVSWGSGCAQKNKPGVYTKVCNYVSWIKQTIASN
[3]
  loss in tryptic activity (stability of solution): No significant loss in tryptic activity was observed

Source: patent US5045190A, “Chromatography apparatus” (priority 1990, dated 1991)
